From US5663168A, “Use of compositions for combating tumour diseases” (CIBA-Geigy Corporation, priority 1993, dated 1997)

Test system: human mammary carcinoma of the MCF-7 line
Assay: Inhibition of the growth of a human mammary carcinoma in the mouse model
Format: in vivo, Balb/c nu/nu-mice
Description: 2×6 female Balb/c nu/nu-mice (Bomholtgard, oestrogen-stimulated with 5 mg of oestradiol in a perforated plastics tube "Silastic®" (Dow Chemical, Michigan, USA)) are implanted with tumours by subcutaneous transplantation of fragments of human mammary carcinoma (about 25 mg) of the MCF-7 line (American Type Culture Collection, Maryland, USA; see H. D. Soule et al., J. Nat. Cancer Inst. 51, 1409-1416 (1973)). After the tumours have grown to a volume of about 30 to 100 mm^3 (after 13 days), 6 mice (test group) are each given twice dally over a period of 25 days a dose of 50 mg/kg of Boc-Phe[C]Phe-(L)-Val-(L)-Phe-morpholin-4-ylamide (dissolved in a concentration of 2 mg/ml in a 5% solution of dimethyl sulfoxide and 20% hydroxypropyl-β-cyclodextrin in water, prepared by dissolution of the test compound in dimethyl sulfoxide and dilution with aqueous hydroxypropyl-β-cyclodextrin solution). […] After 25 days (50 administrations) the following tumour volumes (mean value) are determined:
The tumour growth is determined by measuring the diameter along the longitudinal axis of the tumour (L) and perpendicular thereto (D) (in a living animal by means of a calliper gauge). The tumour volumes are calculated in accordance with the formula π×L×D^2 /6 (Evans, B. D., et al., Brit. J. Cancer 45, 466-468 (1982)).

Substance: Boc-Phe[C]Phe-(L)-Val-(L)-Phe-morpholin-4-ylamide
- tumour growth in comparison with the control group (MCF-7 tumours in female Balb/c nu/nu-mice, 50 mg/kg orally twice daily for 25 days): marked reduction in tumour growth
- tumour volume (mean value) (subcutaneous MCF-7 tumour fragments in oestrogen-stimulated female Balb/c nu/nu-mice, 50 mg/kg orally twice daily, after 25 days (50 administrations), placebo control 0.96 cm^3): 0.30 cm^3
